Laboratory results published in US20120196927A1, “PROPHYLACTIC AND/OR THERAPEUTIC AGENT FOR METABOLIC SYNDROME” (priority 2009, published 2012).

What was measured:
[1] = system: C57BL/6J-ob/ob mice; assay type: in vivo, mouse; settings: p.o. daily 5 weeks, nobiletin 200 mg/kg/day (No200), Pioglitazone 30 mg/kg/day (P30)
Source text: (§3) Diabetes model mice and the experimental system were as follows. As the diabetes model mice, 7 week age of male C57BL/6J-ob/ob (hereinafter, it was referred to as “ob/ob”) were purchased from Charles River Laboratories Japan Inc., and used as 10 mice/group.
For the negative control group (from FIGS. 5 to 10, it was shown as Vehicle; hereinafter, it is referred to as “solvent administration group”), 0.3% of CMC aqueous solution was administrated orally for 5 weeks in everyday at the dosage of 0.01 mL/g body weight. For the positive control group (in FIGS. 5 to 10 and hereinafter, it was referred to as “P30 administrated group”), 3 mg of Pioglitazone was suspended in 0.3% CMC aqueous solution so as to be orally administrated at the dosage of 0.01 mL/g body weight for 5 weeks in everyday (dosage: 30 mg/kg body weight/day).
For the sample ingestion group (in FIGS. 5 to 10 and hereinafter, it is referred to as “No200 ingestion group”), 20 mg of nobiletin purified as mentioned above (1) was suspended in 0.3% of carboxymethylcellulose (CMC) aqueous solution so as to be orally administrated at the dose of 0.01 mL/g body weight for 5 weeks in everyday (the dose: 200 mg/kg/day).
The body weight of mice, ingestion amount, weight of the white adipose tissue and liver weight of each mice were measured as the same as described in the example 3.

[2] = system: male C57BL/6 mice; test: Nobiletin, obesity-induced mice: glucose tolerance test (OGTT); assay type: in vivo, mouse; settings: for Blood glucose level (OGTT): HFD
Protocol: The sugar tolerance test was carried out as the same as those done in the example 2 (n=9).

[3] = system: C57BL/6J-ob/ob mice; settings: nobiletin 200 mg/kg/day, Pioglitazone 30 mg/kg/day, 5 weeks
Source text: as §3
For the negative control group (from FIGS. 5 to 10, it was shown as Vehicle; hereinafter, it is referred to as “solvent administration group”), 0.3% of CMC aqueous solution was administrated orally for 5 weeks in everyday at the dosage of 0.01 mL/g body weight. For the positive control group (in FIGS. 5 to 10 and hereinafter, it was referred to as “P30 administrated group”), 3 mg of Pioglitazone was suspended in 0.3% CMC aqueous solution so as to be orally administrated at the dosage of 0.01 mL/g body weight for 5 weeks in everyday (dosage: 30 mg/kg body weight/day). […]
The blood insulin level was measured as described in below. […] As lipids in plasma, concentrations of neutral fat (TG) and total cholesterol (T-CHO) were measured. Plasma insulin level was measured by using rebis insulin mouse (type U) (Shibayagi Co. Ltd.) based on the enzyme-immunoassay.

[4] = system: C57BL/6J-ob/ob mice; test: Diabetes model mice: fasting blood glucose level; assay type: in vivo, mouse; settings: nobiletin 200 mg/kg/day, Pioglitazone 30 mg/kg/day p.o.
Protocol: Two weeks or 5 weeks from the beginning of the administration, the fasting blood glucose was measured (n=10). The measurement of the blood glucose level was carried out as the same as that of the example 1.

[5] = system: male C57BL/6 mice; test: Nobiletin, obesity-induced mice: body weight and ingestion amount; assay type: in vivo, mouse; settings: for Body weight: HFD obesity-induced mice; for Ingestion amount, [Final Average]: average of 5 weeks; for Body weight, [Final gain]: gained amount during 0 to +5 weeks; for Ingestion amount: per mouse in 24 hrs
Source text: (§1) Six weeks age of male C57BL/6 mice were preliminary reared for 1 week (−9 to −8 week); then classified into 4 groups (n=9 in each group). LFD was given to one group and HFD was given to other 3 groups for 8 weeks (−8 to +5 week). From 8 weeks (15 week age) to 13 weeks, each group was given the following agents per os for 5 weeks in everyday. In below, the LFD administration group was defined that they ingested LFD; the HFD administration group is defined that they ingested the HFD without nobiletin. The compositions of the LFD and HFD are the same as those used in the Example 3.
(§2) To both of the LFD administration group and the HFD administration group, 0.3% CMC aqueous solution was given at the amount of 0.01 mL/g body weight. […] The group to which nobiletin was given at the amount of 10 mg/kg/day was referred to as “No10 administration group; the abbreviated as HFD+No 10” and another group to which nobiletin was given at the amount of 100 mg/kg/day was referred to as “No 100 administration group; abbreviated as HFD+No 100”. The schedule of the feed ingestion and administration of the agent for the above-mentioned 4 groups were schematically shown in FIG. 12A.
In the table, [Final gain] means gained amount during 0 to +5 weeks. […] By this, it was shown that nobiletin has the effect to suppress the body weight gain after the obesity induction by ingesting the high fat diet.
The ingestion amount of each mouse was measured everyday from 1 to 8 day (0 week) in the beginning of the agent administration. The ingested amount in 24 hrs was measured per cage, and then the average ingestion amount (g) per mouse was calculated. The date of day 0 means that of the previous day of the administration beginning. After 2 weeks from the administration, it was measured twice a week. [Final average] means the average of 5 weeks.

[6] = system: male C57BL/6 mice; test: Nobiletin, obesity-induced mice: tissue weight; assay type: in vivo, mouse; settings: HFD obesity-induced mice
Source text: as §1, §2

[7] = system: C57BL/6J-ob/ob mice; test: Diabetes model mice: oral glucose tolerance test (OGTT); assay type: in vivo, mouse; settings: nobiletin 200 mg/kg/day, Pioglitazone 30 mg/kg/day
Protocol: The oral glucose tolerance test (OGTT) for the diabetes model mice (ob/ob) to which the nobiletin and others were administrated was subjected to the glucose tolerance test for studying the effects.
From 4 weeks after the start of the administration, the mice in each group were fasted for 16 hours, and then they were administrated 2 g/kg body weight of glucose per os. After the administration of glucose, […] of blood was collected from the tail vein at the time point of 0, 30, 60 and 120 minutes. Collected blood was centrifuged at 4° C., 3,000×g, for 15 minute to obtain plasma (n=10). The blood glucose level was measured as the same as that described in the example 1.

[8] = nobiletin 10 mg/kg/day p.o. 5 weeks
[9] = nobiletin 100 mg/kg/day p.o. 5 weeks
[10] = nobiletin 10 mg/kg/day p.o., HFD
[11] = nobiletin 100 mg/kg/day p.o., HFD

## COc1ccc(-c2cc(=O)c3c(OC)c(OC)c(OC)c(OC)c3o2)cc1OC [nobiletin]
[1]
  Gained body weight: 9.33 ± 0.49 g
  white adipose tissue: 5.69 ± 0.17 g
[2]; 0 to 120 minutes, nobiletin 10 mg/kg/day p.o.
  area under the curve (AUC) of blood glucose in OGTT, compared with HFD administration group: no significant difference
[2]; 0 to 120 minutes, nobiletin 100 mg/kg/day p.o., p<0.05
  area under the curve (AUC) of blood glucose in OGTT, compared with HFD group: significant difference
[2]; 0 minute after glucose, nobiletin 10 mg/kg/day p.o.
  Blood glucose level (OGTT): 157.47 ± 10.54 mg/dL
[2]; 0 minute after glucose, nobiletin 100 mg/kg/day p.o.
  Blood glucose level (OGTT): 128.49 ± 5.59 mg/dL
[2]; 15 minutes after glucose, nobiletin 10 mg/kg/day p.o.
  Blood glucose level (OGTT): 384.94 ± 17.66 mg/dL
[2]; 15 minutes after glucose, nobiletin 100 mg/kg/day p.o.
  Blood glucose level (OGTT): 340.91 ± 16.88 mg/dL
[2]; 30 minutes after glucose, nobiletin 10 mg/kg/day p.o.
  Blood glucose level (OGTT): 342.5 ± 27.08 mg/dL
[2]; 30 minutes after glucose, nobiletin 100 mg/kg/day p.o.
  Blood glucose level (OGTT): 334.84 ± 16.98 mg/dL
[2]; 60 minutes after glucose, nobiletin 10 mg/kg/day p.o.
  Blood glucose level (OGTT): 271.76 ± 31.64 mg/dL
[2]; 60 minutes after glucose, nobiletin 100 mg/kg/day p.o.
  Blood glucose level (OGTT): 267.27 ± 18.22 mg/dL
[2]; 120 minutes after glucose, nobiletin 10 mg/kg/day p.o.
  Blood glucose level (OGTT): 217.1 ± 35.92 mg/dL
[2]; 120 minutes after glucose, nobiletin 100 mg/kg/day p.o.
  Blood glucose level (OGTT): 178.45 ± 15.37 mg/dL
[3]
  Adiponectin level in blood, times higher than solvent administration group: not so high
[4]; 0 week after administration
  Blood glucose level (fasting): 175.61 ± 11.44 mg/dL
[4]; 2 weeks after administration
  Blood glucose level (fasting): 169.22 ± 13.22 mg/dL
[4]; 5 weeks after administration
  Blood glucose level (fasting): 148.46 ± 7.56 mg/dL
[5]; [8]
  Body weight: 33.14 ± 1.02 g
[5]; nobiletin 10 mg/kg/day p.o., 0 weeks after administration
  Body weight: 31.07 ± 0.78 g
[5]; nobiletin 10 mg/kg/day p.o., 1 week
  Body weight: 31.10 ± 0.72 g
[5]; nobiletin 10 mg/kg/day p.o., 2 weeks
  Body weight: 32.10 ± 0.85 g
[5]; nobiletin 10 mg/kg/day p.o., 3 weeks
  Body weight: 33.01 ± 1.01 g
[5]; nobiletin 10 mg/kg/day p.o., 4 weeks
  Body weight: 32.58 ± 0.97 g
[5]; [9]
  Body weight: 31.88 ± 0.68 g
[5]; nobiletin 100 mg/kg/day p.o., 0 weeks after administration
  Body weight: 31.21 ± 0.60 g
[5]; nobiletin 100 mg/kg/day p.o., 1 week
  Body weight: 29.93 ± 0.52 g
[5]; nobiletin 100 mg/kg/day p.o., 2 weeks
  Body weight: 30.61 ± 0.60 g
[5]; nobiletin 100 mg/kg/day p.o., 3 weeks
  Body weight: 31.62 ± 0.62 g
[5]; nobiletin 100 mg/kg/day p.o., 4 weeks
  Body weight: 31.28 ± 0.59 g
[5]; [10]
  Ingestion amount, [Final Average]: 2.58 ± 0.1 g
  Body weight, [Final gain]: 2.08 ± 0.69 g
[5]; [11]
  Ingestion amount, [Final Average]: 2.61 ± 0.08 g
  Body weight, [Final gain]: 0.67 ± 0.37 g
[5]; day 0 (previous day of administration beginning), nobiletin 10 mg/kg/day group
  Ingestion amount: 2.36 ± 0.04 g
[5]; day 0 (previous day of administration beginning), nobiletin 100 mg/kg/day group
  Ingestion amount: 2.36 ± 0.04 g
[5]; day 1, nobiletin 10 mg/kg/day p.o., HFD
  Ingestion amount: 2.28 ± 0.13 g
[5]; day 1, nobiletin 100 mg/kg/day p.o., HFD
  Ingestion amount: 1.57 ± 0.09 g
[5]; day 2, nobiletin 10 mg/kg/day p.o., HFD
  Ingestion amount: 1.85 ± 0.19 g
[5]; day 2, nobiletin 100 mg/kg/day p.o., HFD
  Ingestion amount: 1.71 ± 0.13 g
[5]; day 3, nobiletin 10 mg/kg/day p.o., HFD
  Ingestion amount: 1.85 ± 0.19 g
[5]; day 3, nobiletin 100 mg/kg/day p.o., HFD
  Ingestion amount: 1.71 ± 0.13 g
[5]; day 4, nobiletin 10 mg/kg/day p.o., HFD
  Ingestion amount: 2.27 ± 0.28 g
[5]; day 4, nobiletin 100 mg/kg/day p.o., HFD
  Ingestion amount: 1.83 ± 0.15 g
[5]; day 5, nobiletin 10 mg/kg/day p.o., HFD
  Ingestion amount: 1.78 ± 0.21 g
[5]; day 5, nobiletin 100 mg/kg/day p.o., HFD
  Ingestion amount: 1.59 ± 0.20 g
[5]; day 6, nobiletin 10 mg/kg/day p.o., HFD
  Ingestion amount: 2.36 ± 0.14 g
[5]; day 6, nobiletin 100 mg/kg/day p.o., HFD
  Ingestion amount: 2.04 ± 0.09 g
[5]; day 7, nobiletin 10 mg/kg/day p.o., HFD
  Ingestion amount: 2.99 ± 0.07 g
[5]; day 7, nobiletin 100 mg/kg/day p.o., HFD
  Ingestion amount: 2.62 ± 0.12 g
[5]; day 8, nobiletin 10 mg/kg/day p.o., HFD
  Ingestion amount: 2.12 ± 0.32 g
[5]; day 8, nobiletin 100 mg/kg/day p.o., HFD
  Ingestion amount: 2.43 ± 0.03 g
[6]; [8]
  Tissue Weight, Kidney: 0.34 ± 0.02 g/100 g of body weight
  Tissue Weight, Liver: 1.28 ± 0.08 g/100 g of body weight
  Tissue Weight, White adipose tissue: 1.96 ± 0.28 g/100 g of body weight
  Tissue Weight, White adipose tissue [Periphery of genitals]: 1.23 ± 0.19 g/100 g of body weight
  Tissue Weight, White adipose tissue [Periphery of intestine]: 0.27 ± 0.04 g/100 g of body weight
  Tissue Weight, White adipose tissue [Periphery of kidney]: 0.47 ± 0.07 g/100 g of body weight
[6]; [9]
  Tissue Weight, Kidney: 0.35 ± 0.01 g/100 g of body weight
  Tissue Weight, Liver: 1.40 ± 0.04 g/100 g of body weight
  Tissue Weight, White adipose tissue: 1.52 ± 0.15 g/100 g of body weight
  Tissue Weight, White adipose tissue [Periphery of genitals]: 0.92 ± 0.09 g/100 g of body weight
  Tissue Weight, White adipose tissue [Periphery of intestine]: 0.20 ± 0.02 g/100 g of body weight
  Tissue Weight, White adipose tissue [Periphery of kidney]: 0.36 ± 0.03 g/100 g of body weight
[7]; 0 min after 2 g/kg glucose p.o.
  Blood glucose level (OGTT): 145.26 ± 7.56 mg/dL
[7]; 30 min after 2 g/kg glucose p.o.
  Blood glucose level (OGTT): 304.41 ± 20.23 mg/dL
[7]; 60 min after 2 g/kg glucose p.o.
  Blood glucose level (OGTT): 207.47 ± 11.56 mg/dL
[7]; 120 min after 2 g/kg glucose p.o.
  Blood glucose level (OGTT): 192.57 ± 9.01 mg/dL
